Columns and labels:
Beta-secretase 1 [1] = molecular target: T1, Beta-secretase 1 (Homo sapiens, UniProt P56817); assay: Inhibition of BACE1 at 50 uM after 2 hrs by FRET assay
Renin (Homo sapiens) = molecular target: T2, Renin (Homo sapiens) (UniProt P00797); assay: Inhibition of renin at 50 uM after 30 mins by fluorometric assay
T2 sequence (whole entry): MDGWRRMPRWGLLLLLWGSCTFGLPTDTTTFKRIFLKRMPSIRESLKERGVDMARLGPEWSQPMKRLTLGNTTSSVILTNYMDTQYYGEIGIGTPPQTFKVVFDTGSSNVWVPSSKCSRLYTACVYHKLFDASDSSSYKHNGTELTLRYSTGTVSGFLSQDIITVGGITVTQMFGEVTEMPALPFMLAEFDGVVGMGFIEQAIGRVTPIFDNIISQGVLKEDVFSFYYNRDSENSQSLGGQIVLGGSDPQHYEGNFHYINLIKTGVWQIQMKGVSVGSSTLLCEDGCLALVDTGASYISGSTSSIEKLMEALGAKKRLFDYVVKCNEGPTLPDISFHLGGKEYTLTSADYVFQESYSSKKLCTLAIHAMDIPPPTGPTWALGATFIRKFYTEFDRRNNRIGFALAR

Beta-secretase 1 [2] = molecular target: T1, Beta-secretase 1
Description: Inhibition of BACE1 after 2 hrs by FRET assay

T1 sequence (P56817 whole entry): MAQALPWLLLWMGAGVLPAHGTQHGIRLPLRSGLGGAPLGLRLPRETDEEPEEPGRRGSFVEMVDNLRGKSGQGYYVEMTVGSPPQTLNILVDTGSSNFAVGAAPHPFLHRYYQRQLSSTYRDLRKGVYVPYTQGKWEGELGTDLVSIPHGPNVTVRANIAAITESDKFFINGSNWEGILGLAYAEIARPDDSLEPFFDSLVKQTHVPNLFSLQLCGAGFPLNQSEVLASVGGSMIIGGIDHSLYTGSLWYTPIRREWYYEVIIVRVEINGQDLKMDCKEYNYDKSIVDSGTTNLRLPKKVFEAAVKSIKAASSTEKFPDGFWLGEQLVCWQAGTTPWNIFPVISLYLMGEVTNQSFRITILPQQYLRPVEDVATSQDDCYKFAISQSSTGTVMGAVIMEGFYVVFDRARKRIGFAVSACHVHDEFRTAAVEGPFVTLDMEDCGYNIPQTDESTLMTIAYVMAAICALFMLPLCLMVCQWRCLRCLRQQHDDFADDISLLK

Compound: COc1ccc(NS(=O)(=O)c2cccc(NC(=O)C[n+]3ccccc3)c2)cc1
- inhibition (Beta-secretase 1 [1]): 50%

Compound: O=C(C[n+]1cccc(C(=O)NCCc2ccccc2)c1)Nc1cccc(C(=O)Nc2ccc(Cl)cc2)c1
- inhibition (Beta-secretase 1 [1]): 78%
- inhibition (Renin (Homo sapiens)): 26%
- IC50 (Beta-secretase 1 [2]): 12 µM

Compound: Cc1cccc(NC(=O)c2cccc(NC(=O)C[n+]3ccccc3)c2)c1
- inhibition (Beta-secretase 1 [1]): 61%

Compound: Cc1ccc(S(=O)(=O)Nc2cccc(NC(=O)C[n+]3cccc(C(N)=O)c3)c2)cc1
- inhibition (Beta-secretase 1 [1]): 4%

Compound: O=C(C[n+]1ccccc1)Nc1cccc(NC(=O)c2ccccc2)c1
- inhibition (Beta-secretase 1 [1]): 51%

Compound: COc1ccc(NC(=O)c2cccc(NC(=O)C[n+]3ccccc3)c2)cc1
- inhibition (Beta-secretase 1 [1]): 100%
- inhibition (Renin (Homo sapiens)): 0%
- IC50 (Beta-secretase 1 [2]): 3.7 µM

Compound: COc1ccc(NC(=O)c2cccc(NC(=O)C[n+]3cccc(C(=O)NCCc4ccccc4)c3)c2)cc1
- inhibition (Beta-secretase 1 [1]): 44%

Compound: Cc1ccc(C(=O)Nc2cccc(NC(=O)C[n+]3ccccc3)c2)cc1
- inhibition (Beta-secretase 1 [1]): 68%
- inhibition (Renin (Homo sapiens)): 0%
- IC50 (Beta-secretase 1 [2]): 13 µM

Compound: COc1ccc(NC(=O)c2cccc(NC(=O)C[n+]3cccc(C(N)=O)c3)c2)cc1
- inhibition (Beta-secretase 1 [1]): 100%
- inhibition (Renin (Homo sapiens)): 0%
- IC50 (Beta-secretase 1 [2]): 1.9 µM

Compound: Cc1ccc(NC(=O)c2cccc(NC(=O)C[n+]3ccccc3)c2)cc1
- inhibition (Beta-secretase 1 [1]): 42%

Compound: O=C(C[n+]1cccc(C(=O)NCCc2ccccc2)c1)Nc1cccc(NC(=O)c2ccccc2)c1
- inhibition (Beta-secretase 1 [1]): 55%

Compound: NC(=O)c1ccc[n+](CC(=O)Nc2cccc(C(=O)Nc3ccc(Cl)cc3)c2)c1
- inhibition (Beta-secretase 1 [1]): 64%
- IC50 (Beta-secretase 1 [2]): 30.2 µM

Compound: Cc1cccc(NC(=O)c2cccc(NC(=O)C[n+]3cccc(C(=O)NCCc4ccccc4)c3)c2)c1
- inhibition (Beta-secretase 1 [1]): 58%

Compound: NC(=O)c1ccc[n+](CC(=O)Nc2cccc(NC(=O)c3ccccc3)c2)c1
- inhibition (Beta-secretase 1 [1]): 54%
- IC50 (Beta-secretase 1 [2]): 44.7 µM

Compound: Cc1ccc(C(=O)Nc2cccc(NC(=O)C[n+]3cccc(C(N)=O)c3)c2)cc1
- inhibition (Beta-secretase 1 [1]): 24%

Compound: Cc1ccc(S(=O)(=O)Nc2cccc(NC(=O)C[n+]3cccc(C(=O)NCCc4ccccc4)c3)c2)cc1
- inhibition (Beta-secretase 1 [1]): 36%

Compound: Cc1ccc(C(=O)Nc2cccc(NC(=O)C[n+]3cccc(C(=O)NCCc4ccccc4)c3)c2)cc1
- inhibition (Beta-secretase 1 [1]): 100%
- inhibition (Renin (Homo sapiens)): 22%
- IC50 (Beta-secretase 1 [2]): 2.2 µM

Compound: Cc1ccc(NC(=O)c2cccc(NC(=O)C[n+]3cccc(C(=O)NCCc4ccccc4)c3)c2)cc1
- inhibition (Beta-secretase 1 [1]): 72%
- inhibition (Renin (Homo sapiens)): 26%
- IC50 (Beta-secretase 1 [2]): 4 µM

Compound: Cc1ccc(NC(=O)c2cccc(NC(=O)C[n+]3cccc(C(N)=O)c3)c2)cc1
- inhibition (Beta-secretase 1 [1]): 69%

Compound: O=C(C[n+]1ccccc1)Nc1cccc(C(=O)Nc2ccc(Cl)cc2)c1
- inhibition (Beta-secretase 1 [1]): 100%
- inhibition (Renin (Homo sapiens)): 0%
- IC50 (Beta-secretase 1 [2]): 1 µM

Compound: COc1ccc(NS(=O)(=O)c2cccc(NC(=O)C[n+]3cccc(C(N)=O)c3)c2)cc1
- inhibition (Beta-secretase 1 [1]): 34%

Compound: O=C(NCc1ccccc1)c1c[nH]c2ccc(S(=O)(=O)NC3CCCCNC3=O)cc2c1=O (stereo not given)
- IC50 (Beta-secretase 1 [2]): 100 µM

Compound: C[C@@H](NC(=O)c1cc(C(=O)N[C@@H](Cc2ccccc2)[C@H](O)CNC(C)(C)C)cc(N(C)S(C)(=O)=O)c1)c1ccc(F)cc1
- IC50 (Beta-secretase 1 [2]): 15 µM

Compound: C[C@@H](NC(=O)c1cc(NS(C)(=O)=O)cc(C(=O)N[C@@H](Cc2ccccc2)[C@H](O)CNC2CC2)c1)c1ccc(F)cc1
- IC50 (Beta-secretase 1 [2]): 63 µM

Compound: O=C(Nc1cc(Br)ccc1N1CCOCC1)c1cccc2ccccc12
- IC50 (Beta-secretase 1 [2]): 20 µM

Compound: Cc1cccc(NC(=O)c2cccc(NC(=O)C[n+]3cccc(C(N)=O)c3)c2)c1
- inhibition (Beta-secretase 1 [1]): 44%

Compound: COc1ccc(-n2nc(C(=O)NCC(=O)Nc3cccc(C)n3)c3ccccc3c2=O)cc1Cl
- IC50 (Beta-secretase 1 [2]): 100 µM

Compound: Cc1ccc(C)c(Nc2nc(N/N=C/c3cc(Br)cc(Br)c3O)nc(N3CCOCC3)n2)c1
- IC50 (Beta-secretase 1 [2]): 100 µM

Compound: O=C(Nc1ccccc1C(=O)NCC(O)CNC(=O)c1ccccc1NC(=O)c1ccccc1)c1ccccc1
- IC50 (Beta-secretase 1 [2]): 100 µM

Reference: ChEMBL document CHEMBL1165911, “Elaborate ligand-based pharmacophore exploration and QSAR analysis guide the synthesis of novel pyridinium-based potent beta-secretase inhibitory leads” (Bioorg Med Chem, 2010)
